# Assay results taken from the supplement of paper PMC10307832.
# Experiments:
# Experiment in all cases: relative viability (nuclei count vs DMSO), 5 days (fraction); higher = more cells survive
# [1] = test system: HCC-78
# Method in brief: (§1)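 Lung cancer cell lines were pin-tool dosed in 1536-well plates on the day after seeding, with either a lone drug or a fixed anchor-drug dose plus five library-drug doses (not always all listed) in √10 steps. Nuclei were counted on 4× images after 5 days. Relative viability is the ratio of treated-well to vehicle-well nuclei counts, with each value a median of duplicate plates.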
# [2] = test system: NCI-H1993
# Method in brief: as §1
# [3] = test system: UMC-11
# Method in brief: as §1
# [4] = test system: BEN
# Method in brief: as §1
# [5] = test system: NCI-H1395
# Method in brief: as §1
# [6] = test system: LXF-289
# Method in brief: as §1
# [7] = test system: LC-2-ad
# Method in brief: as §1
# [8] = test system: RERF-LC-KJ
# Method in brief: as §1
# [9] = test system: HARA
# Method in brief: as §1
# [10] = test system: LOU-NH91
# Method in brief: as §1
# [11] = test system: LU99A
# Method in brief: as §1
# [12] = test system: H3255
# Method in brief: as §1
# [13] = test system: EMC-BAC-2
# Method in brief: as §1
# [14] = test system: NCI-H2126
# Method in brief: as §1
# [15] = test system: 201T
# Method in brief: as §1
# [16] = test system: HOP-62
# Method in brief: as §1
# [17] = test system: NCI-H2087
# Method in brief: as §1
# [18] = test system: COR-L 105
# Method in brief: as §1
# [19] = test system: SK-MES-1
# Method in brief: as §1
# [20] = test system: NCI-H2170
# Method in brief: as §1
smiles,measurement,setting,value
CCNC(=O)c1noc(-c2cc(C(C)C)c(O)cc2O)c1-c1ccc(CN2CCOCC2)cc1 [Luminespib] + CC1(C)CCC(c2ccc(Cl)cc2)=C(CN2CCN(c3ccc(C(=O)NS(=O)(=O)c4ccc(N[C@H](CCN5CCOCC5)CSc5ccccc5)c(S(=O)(=O)C(F)(F)F)c4)cc3)CC2)C1 [Navitoclax] (partner 0.5 µM),relative viability,[1]; first compound 0.002 µM,0.874
same,relative viability,[1]; first compound 0.06325 µM,1.12
same,relative viability,[1]; first compound 0.2 µM,0.21
same,relative viability,[2]; first compound 0.002 µM,0.937
same,relative viability,[2]; first compound 0.006325 µM,1.02
same,relative viability,[2]; first compound 0.02 µM,0.762
same,relative viability,[2]; first compound 0.06325 µM,0.644
same,relative viability,[2]; first compound 0.2 µM,0.466
same,relative viability,[3]; first compound 0.002 µM,0.305
same,relative viability,[3]; first compound 0.006325 µM,0.349
same,relative viability,[3]; first compound 0.02 µM,0.224
same,relative viability,[3]; first compound 0.06325 µM,0.148
same,relative viability,[3]; first compound 0.2 µM,0.108
same,relative viability,[4]; first compound 0.002 µM,0.0714
same,relative viability,[4]; first compound 0.006325 µM,0.0602
same,relative viability,[4]; first compound 0.02 µM,0.0673
same,relative viability,[4]; first compound 0.06325 µM,0.0655
same,relative viability,[4]; first compound 0.2 µM,0.0846
same,relative viability,[5]; first compound 0.002 µM,1.42
same,relative viability,[5]; first compound 0.006325 µM,1.16
same,relative viability,[5]; first compound 0.02 µM,0.949
same,relative viability,[5]; first compound 0.06325 µM,0.407
same,relative viability,[5]; first compound 0.2 µM,0.338
same,relative viability,[6]; first compound 0.002 µM,0.951
same,relative viability,[6]; first compound 0.006325 µM,0.937
same,relative viability,[6]; first compound 0.02 µM,1.05
same,relative viability,[6]; first compound 0.06325 µM,0.851
same,relative viability,[6]; first compound 0.2 µM,0.302
same,relative viability,[7]; first compound 0.002 µM,0.41
same,relative viability,[7]; first compound 0.006325 µM,0.483
same,relative viability,[7]; first compound 0.02 µM,0.516
same,relative viability,[7]; first compound 0.06325 µM,0.0848
same,relative viability,[7]; first compound 0.2 µM,0.126
same,relative viability,[8]; first compound 0.002 µM,0.987
same,relative viability,[8]; first compound 0.006325 µM,1.11
same,relative viability,[8]; first compound 0.02 µM,1.07
same,relative viability,[8]; first compound 0.06325 µM,0.221
same,relative viability,[8]; first compound 0.2 µM,0.22
same,relative viability,[9]; first compound 0.002 µM,1.21
same,relative viability,[9]; first compound 0.006325 µM,1.14
same,relative viability,[9]; first compound 0.02 µM,1.15
same,relative viability,[9]; first compound 0.06325 µM,1.08
same,relative viability,[9]; first compound 0.2 µM,0.553
same,relative viability,[10]; first compound 0.002 µM,0.692
same,relative viability,[10]; first compound 0.006325 µM,0.707
same,relative viability,[10]; first compound 0.02 µM,0.49
same,relative viability,[10]; first compound 0.06325 µM,0.257
same,relative viability,[10]; first compound 0.2 µM,0.256
same,relative viability,[11]; first compound 0.002 µM,0.878
same,relative viability,[11]; first compound 0.006325 µM,0.815
same,relative viability,[11]; first compound 0.02 µM,0.496
same,relative viability,[11]; first compound 0.06325 µM,0.253
same,relative viability,[11]; first compound 0.2 µM,0.119
same,relative viability,[12]; first compound 0.002 µM,0.517
same,relative viability,[12]; first compound 0.006325 µM,0.511
same,relative viability,[12]; first compound 0.02 µM,0.272
same,relative viability,[12]; first compound 0.06325 µM,0.536
same,relative viability,[12]; first compound 0.2 µM,0.112
same,relative viability,[13]; first compound 0.002 µM,1.15
same,relative viability,[13]; first compound 0.006325 µM,1.09
same,relative viability,[13]; first compound 0.02 µM,1.12
same,relative viability,[13]; first compound 0.06325 µM,1.16
same,relative viability,[13]; first compound 0.2 µM,1.13
same,relative viability,[14]; first compound 0.002 µM,0.852
same,relative viability,[14]; first compound 0.006325 µM,0.777
same,relative viability,[14]; first compound 0.02 µM,0.506
same,relative viability,[14]; first compound 0.06325 µM,0.864
same,relative viability,[14]; first compound 0.2 µM,0.874
same,relative viability,[15]; first compound 0.002 µM,1.17
same,relative viability,[15]; first compound 0.006325 µM,1.18
same,relative viability,[15]; first compound 0.02 µM,1.13
same,relative viability,[15]; first compound 0.06325 µM,1.15
same,relative viability,[15]; first compound 0.2 µM,1.18
same,relative viability,[16]; first compound 0.002 µM,1
same,relative viability,[16]; first compound 0.006325 µM,1.07
same,relative viability,[16]; first compound 0.02 µM,1.07
same,relative viability,[16]; first compound 0.06325 µM,0.909
same,relative viability,[16]; first compound 0.2 µM,0.103
same,relative viability,[17]; first compound 0.002 µM,1.03
same,relative viability,[17]; first compound 0.006325 µM,0.871
same,relative viability,[17]; first compound 0.02 µM,0.911
same,relative viability,[17]; first compound 0.06325 µM,0.202
same,relative viability,[17]; first compound 0.2 µM,0.202
same,relative viability,[18]; first compound 0.002 µM,0.729
same,relative viability,[18]; first compound 0.006325 µM,0.696
same,relative viability,[18]; first compound 0.02 µM,1.12
same,relative viability,[18]; first compound 0.06325 µM,0.278
same,relative viability,[18]; first compound 0.2 µM,0.234
same,relative viability,[19]; first compound 0.002 µM,1.27
same,relative viability,[19]; first compound 0.006325 µM,1.24
same,relative viability,[19]; first compound 0.02 µM,1.28
same,relative viability,[19]; first compound 0.06325 µM,0.149
same,relative viability,[19]; first compound 0.2 µM,0.131
same,relative viability,[20]; first compound 0.002 µM,0.646
same,relative viability,[20]; first compound 0.006325 µM,0.596
same,relative viability,[20]; first compound 0.02 µM,0.293
same,relative viability,[20]; first compound 0.06325 µM,0.581
same,relative viability,[20]; first compound 0.2 µM,0.451
